Test results: patent EP4656642A1, “ESTROGEN RECEPTOR PROTEOLYSIS TARGETING CHIMERA COMPOUND AND USE THEREOF” (GAN & LEE PHARM CO., LTD, priority 2023, dated 2024)

Experiments:
Format in all cases: cell-based
ERα [1] = molecular target: T1, ERα (Homo sapiens, UniProt P03372); assay: Degradation of ERα in T-47D cells (immunoblotting, 4 h); parameters: host or cells: T-47D
T1 sequence (P03372 1-595): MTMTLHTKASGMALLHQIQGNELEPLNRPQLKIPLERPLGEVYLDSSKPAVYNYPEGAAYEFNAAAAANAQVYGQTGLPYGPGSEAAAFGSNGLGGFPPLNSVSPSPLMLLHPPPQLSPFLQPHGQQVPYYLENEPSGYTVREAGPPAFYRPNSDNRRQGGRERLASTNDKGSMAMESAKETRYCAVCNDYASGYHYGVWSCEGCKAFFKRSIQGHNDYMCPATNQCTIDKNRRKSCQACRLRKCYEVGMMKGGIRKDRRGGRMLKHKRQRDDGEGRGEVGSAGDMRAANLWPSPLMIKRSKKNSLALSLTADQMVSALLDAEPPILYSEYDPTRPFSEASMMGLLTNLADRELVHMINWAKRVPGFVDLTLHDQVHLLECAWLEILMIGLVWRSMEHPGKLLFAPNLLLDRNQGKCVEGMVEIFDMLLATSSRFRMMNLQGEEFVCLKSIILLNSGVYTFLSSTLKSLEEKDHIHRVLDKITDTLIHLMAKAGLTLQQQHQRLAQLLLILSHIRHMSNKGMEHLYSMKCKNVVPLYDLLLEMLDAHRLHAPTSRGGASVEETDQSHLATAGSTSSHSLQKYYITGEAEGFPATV
Summary of the method: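 T-47D cells were treated with compound (final 0.15-1000 nM, DMSO) for 4 h at 37°C, 5% CO2. Cells were lysed in RIPA buffer with protease inhibitor, and ERα protein in the cleared lysate was measured by immunoblotting.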

MCF-7 cells = assay: Inhibition of cell proliferation of MCF-7 cells (CCK-8, 9 days)
Summary of the method: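 MCF-7 cells seeded at 800 cells/well in DMEM with 10% FBS, exposed to a range of compound concentrations for 9 days at 37°C, 5% CO2. Viability read by CCK-8; IC50 derived for proliferation inhibition.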

T-47D cells = assay: Inhibition of cell proliferation in T-47D cells (CCK-8, 6 days); settings: 6 days of treatment
Summary of the method: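 T-47D cells at 3,000 cells/well in RPMI 1640 with 10% FBS were exposed to a concentration series of PROTAC compounds for 6 days at 37 °C, 5% CO2. Viability was read by CCK-8, and IC50 values were derived for proliferation inhibition.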

ERα [2] = molecular target: T1, ERα; assay: Degradation of ERα in MCF-7 cells (immunoblotting, 4 h)
Summary of the method: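 MCF-7 cells treated 4 h at 37°C with compounds at 0.15-1000nM final. ERα in lysates measured by immunoblot, with band grayscale normalized to an internal reference protein. Degradation rate calculated against DMSO-treated control.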

[3] = treated for 9 days, CCK-8 kit (Table 6)

| Compound | Degradation rate (%) of ERα in T-47D cells (ERα [1]; 1nM compound) | Degradation rate (%) of ERα in T-47D cells (ERα [1]; 10nM compound) | IC50 (MCF-7 cells; [3]) | IC50 (T-47D cells; Table 3) | Degradation rate (%) of ERα in MCF-7 cells (ERα [2]; 1nM compound) | Degradation rate (%) of ERα in MCF-7 cells (ERα [2]; 10nM compound) | IC50 (MCF-7 cells; 9 days of treatment, CCK-8, Table 5) | IC50 (T-47D cells; Table 2) |
| --- | --- | --- | --- | --- | --- | --- | --- | --- |
| O=C1CCC(N2Cc3ccc4c(c3C2=O)OC2(CC4)CCN(C3CCC4(CC3)CCN(c3ccc([C@@H]5c6ccc(O)cc6CC[C@@H]5c5ccccc5)cc3)CC4)CC2)C(=O)N1 (stereo partly drawn) [L1] | -9% | -45% | – | – | -2% | -29% | 130 nM | 5.2 nM |
| O=C1CCC(N2Cc3ccc4c(c3C2=O)OCC2(CCN(C3CCC5(CC3)CCN(c3ccc([C@@H]6c7ccc(O)cc7CC[C@@H]6c6ccccc6)cc3)CC5)CC2)C4)C(=O)N1 (stereo partly drawn) [L3] | 25% | 54% | 130 nM | 5 nM | 23% | 44% | – | – |
| O=C1CCC(N2C(=O)c3ccc4c(c3C2=O)OC2(CC4)CCN(C3CCC4(CC3)CN(c3ccc([C@@H]5c6ccc(O)cc6CC[C@@H]5c5ccccc5)cc3)C4)CC2)C(=O)N1 (stereo partly drawn) [L8] | 32% | 21% | 990 nM | 13.5 nM | 27% | 27% | – | – |
| O=C1CCC(N2Cc3ccc4c(c3C2=O)CC2(CCN(C3CCC5(CC3)CN(c3ccc([C@@H]6c7ccc(O)cc7CC[C@@H]6c6ccccc6)cc3)C5)CC2)CO4)C(=O)N1 (stereo partly drawn) [L10] | 14% | 29% | 925 nM | 17.9 nM | -11% | -6% | – | – |

More lines, now with the values ahead:

| Degradation rate (%) of ERα in T-47D cells (ERα [1]; 1nM compound) | Degradation rate (%) of ERα in T-47D cells (ERα [1]; 10nM compound) | IC50 (MCF-7 cells; [3]) | IC50 (T-47D cells; Table 3) | Degradation rate (%) of ERα in MCF-7 cells (ERα [2]; 1nM compound) | Degradation rate (%) of ERα in MCF-7 cells (ERα [2]; 10nM compound) | IC50 (MCF-7 cells; 9 days of treatment, CCK-8, Table 5) | IC50 (T-47D cells; Table 2) | Compound |
| --- | --- | --- | --- | --- | --- | --- | --- | --- |
| 56% | 87% | 48.2 nM | 1.12 nM | 67% | 88% | – | – | CCNC(=O)[C@H]1CC(N2CCC3(CC2)COc2c3ccc3c2CN(C2CCC(=O)NC2=O)C3=O)CCN1C1CC2(CCN(c3ccc([C@@H]4c5ccc(O)cc5CC[C@@H]4c4ccccc4)cc3)CC2)C1 (stereo partly drawn) [K26] |
| 69% | 88% | 33.1 nM | 1.05 nM | 71% | 86% | – | – | O=C1CCC(N2Cc3c(ccc4c3OCC43CCN(C4CCN(C5CC6(CCN(c7ccc([C@@H]8c9ccc(O)cc9CC[C@@H]8c8ccccc8)cc7)CC6)C5)[C@@H](C(=O)NC5CC5)C4)CC3)C2=O)C(=O)N1 (stereo partly drawn) [K27] |
| 54% | 84% | 590 nM | 41 nM | -3% | 64% | – | – | C[C@@H]1Cc2c(ccc3[nH]ncc23)C(c2ccc(N3CCC4(CCC(N5CCC6(CC5)COc5c6ccc6c5CN(C5CCC(=O)NC5=O)C6=O)CC4)CC3)cn2)N1CC(F)(F)F (stereo partly drawn) [K41] |
| 14% | 69% | 5 nM | 4 nM | 37% | 60% | – | – | O=C1CCC(N2Cc3c(ccc4c3OCC43CCN(C4CCC5(CC4)CN(c4ccc([C@@H]6c7ccc(O)cc7CC[C@@H]6c6ccccc6)cc4)C5)CC3)C2=O)C(=O)N1 (stereo partly drawn) [L11] |
| 23% | 71% | 19 nM | 8.02 nM | 18% | 57% | – | – | O=C1CCC(N2Cc3c(ccc4c3OCC43CCN(C4CCC5(CC4)CCN(c4ccc([C@@H]6c7ccc(O)cc7CC[C@@H]6c6ccccc6)cc4)CC5)CC3)C2=O)C(=O)N1 (stereo partly drawn) [L15] |
| 29% | 64% | 39 nM | 7.09 nM | 29% | 51% | – | – | O=C1CCC(N2Cc3c(ccc4c3OCC43CCN(C4CC5(CCN(c6ccc([C@@H]7c8ccc(O)cc8CC[C@@H]7c7ccccc7)cc6)CC5)C4)CC3)C2=O)C(=O)N1 (stereo partly drawn) [L16] |
